{
  "source": "patent US5679645A",
  "about": "“Sialic acid powder and process for the preparation thereof” (Snow Brand Milk Products Co., Ltd., priority 1993, dated 1997)",
  "key": {"[1]": {"assay": "Water content of sialic acid powders (Table 1, comparison of properties)", "format": "physicochemical", "conditions": "for Water content: Table 1"}, "[2]": {"assay": "Time for complete dissolution in methanol suspension with Dowex 50", "format": "physicochemical", "description": "A suspension of 10 g of Dowex 50 (trademark, manufactured by Dow Chemical; H+-type, 100-200 mesh, washed with hot methanol) in 100 ml of methanol was prepared. 10 g of Amorphous Powder 1--1, Needles 1--1, or Prisms 1--1 prepared in Example 1 was each charged to the suspension at 25° C. while vigorously stirring. While continuing the stirring at 25° C., the mixture was sampled from time to time to measure the time required for the sialic acids to be dissolved completely to form a clear solution, the degree of reaction, and the final reaction yield. The reaction yield was calculated by HPLC (HPX-87H column, trademark, manufactured by Bio Rad Co.)."}, "[3]": {"assay": "Solubility in water and organic solvents (statement)"}, "[4]": {"assay": "Relationship between freezing rate and properties of the freeze-dried powder (degree of crystallization, water content; Table 2)", "format": "physicochemical", "conditions": "40% by weight aqueous solution", "description": "Relationship between the freezing rate of a sialic acid aqueous solution and properties of the ultimate product was studied. 40% by weight aqueous solution of sialic acids was used and frozen for different periods of time using liquid nitrogen, a cooling shelf, and a freezer, and freeze-dried for 4 days. The degree of crystallization and the water content were measured."}, "[5]": {"conditions": "10 g in 100 ml methanol with 10 g Dowex 50 (H+), 25° C., stirring"}, "[6]": {"conditions": "time for freezing 1 minute or shorter"}, "[7]": {"conditions": "time for freezing 5 minute or shorter"}, "[8]": {"conditions": "time for freezing 10 minute or shorter"}, "[9]": {"conditions": "time for freezing 30 minute or shorter"}, "[10]": {"conditions": "time for freezing 1 hour or shorter"}, "[11]": {"conditions": "time for freezing 3 hours or shorter"}},
  "data": [
    {"smiles": "CC(=O)N[C@H]1[C@H]([C@H](O)[C@H](O)CO)OC(O)(C(=O)O)C[C@@H]1O", "note": "(some centres unmarked) [Amorphous Powder 1-1, sialic acid]", "values": [
      {"measurement": "Water content", "setting": "[1]", "result": 2.2, "unit": "%"},
      {"measurement": "Time required for complete dissolution", "setting": "[2]; [5]", "result": 6, "unit": "min"},
      {"measurement": "Time required for complete dissolution (in words)", "setting": "[2]; [5]", "result": "dissolved fastest"}
    ]},
    {"smiles": "CC(=O)N[C@H]1[C@H]([C@H](O)[C@H](O)CO)OC(O)(C(=O)O)C[C@@H]1O", "note": "(some centres unmarked) [sialic acid]", "values": [
      {"measurement": "Water content (in words)", "setting": "[1]; compared with needles", "result": "very close to those of needles"},
      {"measurement": "Solubility in organic solvents and reactivity (in words)", "setting": "[3]; compared with needles", "result": "superiority to such sialic acid needles, in terms of solubility in organic solvents and the reactivity"},
      {"measurement": "Solubility in water (in words)", "setting": "[3]; compared with needles and prisms", "result": "more excellent in its solubility in water than both the needles and the prisms"}
    ]},
    {"smiles": "CC(=O)N[C@H]1[C@H]([C@H](O)[C@H](O)CO)OC(O)(C(=O)O)C[C@@H]1O", "note": "(some centres unmarked) [Needles 1-1, sialic acid]", "values": [
      {"measurement": "Water content", "setting": "[1]", "result": 2.1, "unit": "%"},
      {"measurement": "Time required for complete dissolution", "setting": "[2]; [5]", "result": 27, "unit": "min"}
    ]},
    {"smiles": "CC(=O)N[C@H]1[C@H]([C@H](O)[C@H](O)CO)OC(O)(C(=O)O)C[C@@H]1O", "note": "(some centres unmarked) [freeze-dried powder, sialic acid]", "values": [
      {"measurement": "Crystallization degree", "setting": "[4]; [6]", "result": 0, "unit": "%"},
      {"measurement": "Water content", "setting": "[4]; [6]", "result": "1.1-1.7%"},
      {"measurement": "Crystallization degree", "setting": "[4]; [7]", "result": "> 0.1", "unit": "%"},
      {"measurement": "Water content", "setting": "[4]; [7]", "result": "1.2-1.9%"},
      {"measurement": "Crystallization degree", "setting": "[4]; [8]", "result": "0.2-0.4%"},
      {"measurement": "Water content", "setting": "[4]; [8]", "result": "1.4-2.1%"},
      {"measurement": "Crystallization degree", "setting": "[4]; [9]", "result": "1.8-2.3%"},
      {"measurement": "Water content", "setting": "[4]; [9]", "result": "2.4-3.6%"},
      {"measurement": "Crystallization degree", "setting": "[4]; [10]", "result": "9.8-15.1%"},
      {"measurement": "Water content", "setting": "[4]; [10]", "result": "3.9-4.8%"},
      {"measurement": "Crystallization degree", "setting": "[4]; [11]", "result": "26-35%"},
      {"measurement": "Water content", "setting": "[4]; [11]", "result": "5.1-6.2%"}
    ]},
    {"smiles": "CC(=O)N[C@H]1[C@H]([C@H](O)[C@H](O)CO)OC(O)(C(=O)O)C[C@@H]1O", "note": "(some centres unmarked) [Prisms 1-1, sialic acid]", "values": [
      {"measurement": "Water content", "setting": "[1]", "result": 10.9, "unit": "%"},
      {"measurement": "Crystal water contained in the powder", "setting": "[1]; stated in discussion of Table 3", "result": "about 10%"},
      {"measurement": "Complete dissolution after 5 hours (in words)", "setting": "[2]; methanol with Dowex 50, 25° C., 5 hours", "result": "did not completely dissolved"}
    ]}
  ]
}
